# According to PubChem BioAssay (NCI):
#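 A five-concentration, 48-hour dose response in 96-well plates underlies each endpoint, interpolated linearly between surrounding concentrations. Definition used: TGI = concentration required for complete inhibition of growth.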 Where a SMILES comes first, the peptide text is derived from it. The star is where a group is joined. Cbz = O=C(OCc1ccccc1)*; Boc = CC(C)(C)OC(=O)*; OSu = O=C1CCC(=O)N1O*; Bn = c1ccc(C*)cc1
# Legend:
# Experiment in all cases: inhibition of tumour cell growth, NCI panel, 48 h
# [1] = test system: A549 NSCLC
# [2] = test system: HT29 colon
# [3] = test system: MOLT-4 leukemia
# [4] = test system: NCI-H460 lung
# [5] = test system: OVCAR-4 ovarian
# [6] = test system: PC-3 prostate
# [7] = test system: SK-MEL-5 melanoma
# [8] = test system: SK-OV-3 ovarian
# [9] = test system: SN12C renal
# [10] = test system: SR leukemia
# [11] = test system: LOX IMVI melanoma
# [12] = test system: SNB-75 CNS
SMILES,TGI [1] [µM],TGI [2] [µM],TGI [3] [µM],TGI [4] [µM],TGI [5] [µM],TGI [6] [µM],TGI [7] [µM],TGI [8] [µM],TGI [9] [µM],TGI [10] [µM],TGI [11] [µM],TGI [12] [µM]
CCOC(=O)[C@@]12C3C=CC(CC3)[C@]1(C(=O)c1ccccc1)C(=O)C(=O)N2c1ccccc1 (stereo partly drawn),> 100,> 100,> 100,> 100,> 100,> 100,> 100,> 100,> 100,> 100,–,–
c1ccc([P+](Cc2ccccc2C[P+](c2ccccc2)(c2ccccc2)c2ccccc2)(c2ccccc2)c2ccccc2)cc1,> 100,> 100,–,> 100,–,> 100,> 100,> 100,> 100,–,> 100,> 100
CO[C@@H]1C=C[C@@]23c4cc5c(cc4C(=O)O[C@H]2CN(C)[C@H]3C1)OCO5,> 100,> 100,> 100,> 100,> 100,–,> 100,> 100,> 100,> 100,> 100,> 100
C=C(C)[C@H]1C=C[C@@H](OC(=O)c2cccnc2)[C@@]23CO[C@@](C)([C@H](OC(=O)c4cccnc4)[C@@]4(OC(C)=O)C[C@H](C)[C@H](OCCC)[C@@H]4[C@H]2OC(C)=O)[C@H]13,–,–,> 15,> 15,> 15,> 15,> 15,> 15,> 15,> 15,> 15,> 15
CC(=O)NC1=C(NCCN(C)C)C(=O)c2ccccc2C1=O,48.8,38.6,> 50,> 50,17.7,–,14.1,> 50,27.8,> 50,> 50,> 50
CC(C)(C)OC(=O)NC(Cc1ccc(OCc2ccccc2)cc1)C(=O)NC(CCCCNC(=O)OCc1ccccc1)C(=O)ON1C(=O)CCC1=O (stereo not drawn) (Boc-Tyr(Bn)-Lys(Cbz)-OSu; configuration not given here),> 100,80.2,48.2,50.8,–,57.7,48,–,32.9,54.9,–,54.9
CC(NC(=O)C(N)CC(=O)O)NC(=O)C1CCC1 (stereo not drawn),> 100,> 100,> 100,> 100,> 100,> 100,> 100,> 100,> 100,–,> 100,> 100
O=c1[nH]nc(Cc2ccccc2)n1/N=C\c1ccccc1,> 100,> 100,> 100,> 100,> 100,> 100,> 100,–,> 100,> 100,> 100,> 100
CC1=CC[C@@]2(CO)[C@@H]([C@@H]1C)[C@H]1CC[C@@H]3[C@@]4(C)CC[C@H](O)C(C)(C)[C@@H]4CC[C@@]3(C)[C@]1(C)C[C@@H]2O,> 100,> 100,> 100,> 100,> 100,> 100,42.1,39.4,> 100,–,45.2,–
N#Cc1c(N)[nH]c(=S)c(C#N)c1-c1ccccc1,> 100,> 100,> 100,> 100,–,> 100,> 100,–,> 100,> 100,> 100,> 100
CCCCC(Sc1cc(Cl)c(C)cc1S(=O)(=O)Nc1n[nH]c(N)n1)C(=O)OC (stereo not drawn),> 10,> 10,> 10,> 10,> 10,> 10,> 10,> 10,> 10,–,> 10,> 10
COC(CC1(/C=C/O[Si](C(C)C)(C(C)C)C(C)C)C(=O)N(C)c2ccccc21)OC (stereo not drawn),> 100,–,> 100,> 100,> 100,> 100,> 100,> 100,> 100,> 100,> 100,> 100
N#C/C(C(=O)Nc1ccc(Cl)cc1)=C(/N)N1CCCCC1,> 100,–,> 100,> 100,–,> 100,> 100,> 100,> 100,> 100,> 100,72.3
CN(C)S(=O)(=O)/N=C/c1cccc(/C=N/S(=O)(=O)N(C)C)c1,> 100,–,> 100,> 100,> 100,> 100,> 100,> 100,> 100,–,> 100,92.8
CC(C)(C)OC(=O)NCCc1cccc2c1oc1c(CCC(=O)O)cccc12,> 100,> 100,> 100,> 100,> 100,–,> 100,> 100,> 100,> 100,> 100,> 100
Cc1ncc2c(=O)c3c(oc2n1)c1ccccc1n3Cc1ccccc1,> 100,> 100,> 100,> 100,–,> 100,> 100,–,> 100,> 100,> 100,> 100
CCC[C@H](NS(=O)c1ccc(C)cc1)C(C(=O)OCC)=C(c1ccccc1)c1ccccc1 (stereo partly drawn),96.9,30.4,> 100,36.5,49,50.7,44.4,> 100,41.7,–,33.6,54.2
Cc1nnc2sc(NN)nn12,> 100,> 100,31.6,> 100,> 100,> 100,> 100,> 100,> 100,–,> 100,> 100
COc1ccc2cc(C(=O)O)ccc2c1OC,> 100,> 100,> 100,> 100,–,> 100,> 100,> 100,> 100,> 100,–,> 100
C=C[C@@H]1C[C@]2(C(=O)OC)Cc3nc4ccccc4nc3CC(C(=O)OC)=C2O1,> 100,> 100,> 100,> 100,> 100,> 100,> 100,> 100,> 100,–,> 100,–

SMILES,TGI [1] [µM],TGI [2] [µM],TGI [3] [µM],TGI [4] [µM],TGI [5] [µM],TGI [6] [µM],TGI [7] [µM],TGI [8] [µM],TGI [9] [µM],TGI [10] [µM],TGI [11] [µM],TGI [12] [µM]
COC1=CCC=C(C[C@@H]2NCCc3cc(OC)c(OC)cc32)C1,> 100,> 100,> 100,> 100,> 100,–,> 100,> 100,> 100,–,> 100,> 100
CC1(C)C(O)C[C@@H](O)[C@@]2(C)C1CC[C@]1(C)C2C[C@@H](O)[C@@H]2C([C@@]3(C)CC[C@@H](C(C)(C)O)O3)CCC21C (stereo partly drawn),37,31.6,67.7,35.9,37.9,–,22.6,33.5,26.9,> 100,23.2,29.7
Cc1ccc(S(=O)(=O)N2CCSCCN(S(=O)(=O)c3ccc(C)cc3)CCN(S(=O)(=O)c3ccc(C)cc3)CC2)cc1,> 100,> 100,> 100,> 100,> 100,–,> 100,86.7,> 100,–,–,–
CC1Oc2c(c(=O)oc3ccccc23)[C@@]1(C)CC1C[C@H](C)C(=O)O1 (stereo partly drawn),> 100,71.5,37.2,–,–,> 100,> 100,> 100,–,–,> 100,> 100
COc1cc(C2C(C#N)=C(N)OC3=C2CCS(=O)(=O)c2ccc(C)cc23)cc(OC)c1OC (stereo not drawn),> 100,> 100,–,> 100,> 100,> 100,> 100,–,> 100,> 100,> 100,> 100
Clc1cc(Cl)cc(C2ON=C(c3ccccc3)N2C23CC4CC(CC(C4)C2)C3)c1 (stereo not drawn),> 10,> 10,> 10,> 10,> 10,> 10,> 10,> 10,> 10,–,> 10,> 10
Cc1nc2c(=O)n(-c3ccccc3)c3ccccc3c2o1,> 100,> 100,> 100,> 100,> 100,> 100,> 100,> 100,> 100,–,> 100,> 100
CCN1C(=O)C(C)S/C1=N\NC(=O)CSc1nc2ccccc2c(=O)n1CC (stereo not drawn),> 100,–,> 100,20.4,> 100,> 100,> 100,> 100,> 100,> 100,> 100,> 100
CCc1c(Cc2[nH]c(Cc3[nH]c(C=O)c(C)c3CC)c(CC)c2CC)[nH]c(C=O)c1C,> 100,> 100,> 100,> 100,> 1,–,> 100,> 100,> 100,> 100,> 100,> 100
COc1ccc(OCc2ccc3nc(-c4ccccc4)c(Cl)nc3c2)cc1,> 100,> 100,> 100,> 100,95.4,> 100,25.8,–,> 100,> 100,> 100,> 100
COc1cc(S(=O)(=O)Nc2ccc(-c3csc(N)n3)cc2)ccc1Cl,39.6,35.8,31.7,–,27.9,29.7,30.6,–,38.5,48.4,34.8,39.2
O=C(O)CCc1ccc2c(c1)C(=O)CC2,> 100,> 100,> 100,> 100,> 100,–,> 100,> 100,> 100,> 100,> 100,–
N/N=C(\C(=O)Nc1ccc(Cl)cc1Cl)C(c1cnc2ccccc2n1)[N+](=O)[O-] (stereo not drawn),> 100,> 100,–,> 100,> 100,> 100,> 100,> 100,> 100,–,> 100,> 100
O=C(O)c1ccc(NC(NC(=O)C(C(F)(F)F)C(F)(F)F)(C(F)(F)F)C(F)(F)F)cc1,> 100,> 100,> 100,–,–,> 100,> 100,> 100,> 100,> 100,> 100,> 100
COC(=O)C(=O)C(C(=O)C(=O)Nc1nc2ccc(C)cc2s1)c1nc2ccc([N+](=O)[O-])cc2[nH]c1=O (stereo not drawn),> 100,> 100,–,> 100,–,> 100,> 100,> 100,> 100,> 100,> 100,> 100
N#Cc1ccccc1NC(=O)C(=O)c1c(O)c2ccccc2oc1=O,> 100,> 100,–,> 100,> 100,> 100,> 100,> 100,> 100,–,> 100,> 100
O=C(O)c1cc(/C=C/c2cc(O)ccc2O)ccc1O,> 10,> 10,> 10,> 10,> 10,> 10,–,–,> 10,> 10,> 10,–
COC(=O)/C=C1/CCC(C)(C(=O)NS(=O)(=O)c2ccc(C)cc2)C1(C)C (stereo not drawn),> 100,–,> 100,> 100,> 100,> 100,> 100,> 100,> 100,–,> 100,–
O=C(N=Nc1cccc(Cl)c1)NNc1cccc(Cl)c1,94.6,43.5,42.7,34.2,52.6,36,38.4,–,35.9,90.7,26.8,> 100
